Data as given in patent US12617797B2, “Substituted pyrazolo [1,5-a]pyrimidines having multimodal activity against pain” (ESTEVE PHARMACEUTICALS, S.A., priority 2020, dated 2026).
pKi: −log10 of the molar value.

Legend:
Human σ1 receptor = biological target: T1, Human σ1 receptor (Homo sapiens, UniProt Q99720); assay: Human σ1 receptor radioligand assay ([3H](+)-pentazocine binding, transfected HEK-293 membranes); details: binding to σ1 receptor expressed as Ki; + also covers inhibition between 1% and 50%; read-out: σ-1 binding
T1 construct: expressed in transfected cells; host or cells: HEK-293
T1 sequence (Q99720 whole entry): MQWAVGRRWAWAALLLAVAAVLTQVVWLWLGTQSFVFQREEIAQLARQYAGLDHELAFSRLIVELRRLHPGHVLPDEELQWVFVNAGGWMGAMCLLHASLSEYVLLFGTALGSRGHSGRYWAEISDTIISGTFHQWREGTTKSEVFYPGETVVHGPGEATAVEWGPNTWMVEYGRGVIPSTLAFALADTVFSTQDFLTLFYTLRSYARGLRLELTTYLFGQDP
Procedure, shortened: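 Ki was derived from five test concentrations, or % inhibition was measured at a single 1 or 10 μM dose, against 5 nM [3H](+)-pentazocine. Incubation was 120 min at 37° C in 50 mM Tris-HCl pH 8 with 7 μg HEK-293 membranes, and 10 μM haloperidol set non-specific binding. Bound radioactivity was counted after filtration.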

[1] = biological target: Human α2δ-1 subunit of Cav2.2 calcium channel (Homo sapiens, UniProt P54289); assay: Human α2δ-1 subunit of Cav2.2 calcium channel assay ([3H]-gabapentin binding); details: binding to the α2δ-1 subunit of voltage-gated calcium channels expressed as Ki; + also covers inhibition between 1% and 50%
Chain of Human α2δ-1 subunit of Cav2.2 calcium channel (P54289 25-1103): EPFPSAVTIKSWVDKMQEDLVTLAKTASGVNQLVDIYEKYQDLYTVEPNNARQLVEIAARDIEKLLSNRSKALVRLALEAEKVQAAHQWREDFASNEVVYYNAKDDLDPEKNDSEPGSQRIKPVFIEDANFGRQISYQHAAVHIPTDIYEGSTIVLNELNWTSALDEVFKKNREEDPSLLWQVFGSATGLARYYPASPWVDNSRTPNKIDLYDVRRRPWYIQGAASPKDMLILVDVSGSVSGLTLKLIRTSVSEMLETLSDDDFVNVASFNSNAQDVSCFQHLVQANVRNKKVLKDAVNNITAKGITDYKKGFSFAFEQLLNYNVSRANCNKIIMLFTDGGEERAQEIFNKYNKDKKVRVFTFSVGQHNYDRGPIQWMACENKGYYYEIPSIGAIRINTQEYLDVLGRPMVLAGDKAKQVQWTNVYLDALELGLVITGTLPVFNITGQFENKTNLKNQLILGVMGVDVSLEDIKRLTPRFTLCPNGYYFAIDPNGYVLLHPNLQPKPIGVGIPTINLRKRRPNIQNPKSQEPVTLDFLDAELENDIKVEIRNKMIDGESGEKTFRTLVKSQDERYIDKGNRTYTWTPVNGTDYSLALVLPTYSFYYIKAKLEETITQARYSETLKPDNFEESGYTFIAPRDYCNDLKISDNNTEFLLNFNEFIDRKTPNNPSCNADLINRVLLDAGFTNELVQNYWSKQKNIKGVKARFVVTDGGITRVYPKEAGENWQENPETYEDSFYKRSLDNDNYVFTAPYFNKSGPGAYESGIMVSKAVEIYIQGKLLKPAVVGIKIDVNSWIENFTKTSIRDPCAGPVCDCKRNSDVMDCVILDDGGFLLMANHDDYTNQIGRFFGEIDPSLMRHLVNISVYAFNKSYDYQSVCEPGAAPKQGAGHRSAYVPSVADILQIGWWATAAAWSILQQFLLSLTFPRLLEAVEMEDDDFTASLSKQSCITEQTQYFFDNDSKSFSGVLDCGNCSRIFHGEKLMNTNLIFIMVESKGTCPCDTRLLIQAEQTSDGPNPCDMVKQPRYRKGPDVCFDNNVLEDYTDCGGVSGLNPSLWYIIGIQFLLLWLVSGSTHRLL
Procedure, shortened: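 Displacement of 15 nM [3H]-gabapentin from human α2δ-1-enriched membranes (Hepes-KOH 10 mM, pH 7.4; 27 °C, 60 min) read by filter binding and radioactivity counting. Values are single-point % inhibition (1 or 10 μM) or five-point Ki; 10 μM pregabalin sets NSB.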

## Cc1nn2c(C3CCCN(Cc4ccccc4)C3)ccnc2c1CN(C)CC1CC1 (stereo not shown) [Example 234, 1-(7-(1-Benzylpiperidin-3-yl)-2-methylpyrazolo[1,5-a]pyrimidin-3-yl)-N-(cyclopropylmethyl)-N-methylmethanamine]
Human σ1 receptor
  pKi: > 6.30
[1]
  pKi: 5.30 to 6.30

## Cc1nn2c(C3CCCN(Cc4ccc(Cl)cc4)C3)ccnc2c1CN(CC1CCOCC1)CC(F)(F)F (stereo not shown) [Example 235, N-((7-(1-(4-Chlorobenzyl)piperidin-3-yl)-2-methylpyrazolo[1,5-a]pyrimidin-3-yl)methyl)-2,2,2-trifluoro-N-((tetrahydro-2H-pyran-4-yl)methyl)ethan-1-amine]
Human σ1 receptor
  pKi: 6.00 to 6.30
[1]
  pKi: < 5.30

## Cc1nn2c(C3CCCN(Cc4ccc(Cl)cc4)C3)ccnc2c1CCN(C)C (stereo not shown) [Example 236, 2-(7-(1-(4-Chlorobenzyl)piperidin-3-yl)-2-methylpyrazolo[1,5-a]pyrimidin-3-yl)-N,N-dimethylethan-1-amine]
Human σ1 receptor
  pKi: > 6.30
[1]
  pKi: 5.30 to 6.30

## Cc1cnc2c(CNCC3CCOCC3)c(C)nn2c1C1CCCN(Cc2ccc(Cl)cc2)C1 (stereo not shown) [Example 237, 1-(7-(1-(4-Chlorobenzyl)piperidin-3-yl)-2,6-dimethylpyrazolo[1,5-a]pyrimidin-3-yl)-N-((tetrahydro-2H-pyran-4-yl)methyl)methanamine]
Human σ1 receptor
  pKi: > 6.30
[1]
  pKi: > 6.30

## Cc1cc(C2CCCN(Cc3ccc(Cl)cc3)C2)n2nc(C)c(CNCC3CCOCC3)c2n1 (stereo not shown) [Example 238, 1-(7-(1-(4-Chlorobenzyl)piperidin-3-yl)-2,5-dimethylpyrazolo[1,5-a]pyrimidin-3-yl)-N-((tetrahydro-2H-pyran-4-yl)methyl)methanamine]
Human σ1 receptor
  pKi: > 6.30
[1]
  pKi: 5.30 to 6.30

## Cc1nn2c([C@H]3CCCN(Cc4ccccc4F)C3)ccnc2c1CNCC1CCOCC1 [Example 239, (S)-1-(7-(1-(2-Fluorobenzyl)piperidin-3-yl)-2-methylpyrazolo[1,5-a]pyrimidin-3-yl)-N-((tetrahydro-2H-pyran-4-yl)methyl)methanamine]
Human σ1 receptor
  pKi: > 6.30
[1]
  pKi: < 5.30

## Cc1nn2c([C@H]3CCCN(Cc4ccc(F)cc4F)C3)ccnc2c1CNCC1CCOCC1 [Example 240, (S)-1-(7-(1-(2,4-Difluorobenzyl)piperidin-3-yl)-2-methylpyrazolo[1,5-a]pyrimidin-3-yl)-N-((tetrahydro-2H-pyran-4-yl)methyl)methanamine]
Human σ1 receptor
  pKi: > 6.30
[1]
  pKi: 5.30 to 6.30

## Cc1nn2c([C@H]3CCCN(Cc4cc(F)cc(F)c4)C3)ccnc2c1CNCC1CCOCC1 [Example 241, (S)-1-(7-(1-(3,5-Difluorobenzyl)piperidin-3-yl)-2-methylpyrazolo[1,5-a]pyrimidin-3-yl)-N-((tetrahydro-2H-pyran-4-yl)methyl)methanamine]
Human σ1 receptor
  pKi: > 6.30
[1]
  pKi: < 5.30

## COc1ccc(CN2CCCC(c3ccnc4c(CNCC5CCOCC5)c(C)nn34)C2)cc1 (stereo not shown) [Example 242, 1-(7-(1-(4-Methoxybenzyl)piperidin-3-yl)-2-methylpyrazolo[1,5-a]pyrimidin-3-yl)-N-((tetrahydro-2H-pyran-4-yl)methyl)methanamine]
Human σ1 receptor
  pKi: > 6.30
[1]
  pKi: < 5.30

## Cc1nn2c([C@H]3CCCN(Cc4ccccc4)C3)ccnc2c1CNC[C@@H]1CCN(C)C(=O)C1 [Example 243, (R)-4-((((7-((S)-1-Benzylpiperidin-3-yl)-2-methylpyrazolo[1,5-a]pyrimidin-3-yl)methyl)amino)methyl)-1-methylpiperidin-2-one]
Human σ1 receptor
  pKi: < 6.00
[1]
  pKi: 5.30 to 6.30

## Cc1nn2c([C@H]3CCCN(Cc4ccccc4)C3)ccnc2c1CNC[C@H]1CCN(C)C(=O)C1 [Example 244, (S)-4-((((7-((S)-1-Benzylpiperidin-3-yl)-2-methylpyrazolo[1,5-a]pyrimidin-3-yl)methyl)amino)methyl)-1-methylpiperidin-2-one]
Human σ1 receptor
  pKi: < 6.00
[1]
  pKi: 5.30 to 6.30

## Cc1nn2c([C@H]3CCCN(Cc4ccccc4)C3)ccnc2c1CNC[C@H]1CCC(=O)NC1 [Example 245, (R)-5-((((7-((S)-1-Benzylpiperidin-3-yl)-2-methylpyrazolo[1,5-a]pyrimidin-3-yl)methyl)amino)methyl)piperidin-2-one]
Human σ1 receptor
  pKi: < 6.00
[1]
  pKi: 5.30 to 6.30

## Cc1nn2c([C@H]3CCCN(Cc4ccccc4)C3)ccnc2c1CNC[C@@H]1CCC(=O)NC1 [Example 246, (S)-5-((((7-((S)-1-Benzylpiperidin-3-yl)-2-methylpyrazolo[1,5-a]pyrimidin-3-yl)methyl)amino)methyl)piperidin-2-one]
Human σ1 receptor
  pKi: < 6.00
[1]
  pKi: 5.30 to 6.30

## CC(=O)N1CCC(CNCc2c(C)nn3c([C@H]4CCCN(Cc5ccc(F)c(F)c5)C4)ccnc23)CC1 [Example 247, (S)-1-(4-((((7-(1-(3,4-Difluorobenzyl)piperidin-3-yl)-2-methylpyrazolo[1,5-a]pyrimidin-3-yl)methyl)amino)methyl)piperidin-1-yl)ethan-1-one]
Human σ1 receptor
  pKi: > 6.30
[1]
  pKi: > 6.30

## COc1nn2c(C3CCCN(Cc4ccccc4)C3)ccnc2c1CNCC1CCOCC1 (stereo not shown) [Example 248, 1-(7-(1-Benzylpiperidin-3-yl)-2-methoxypyrazolo[1,5-a]pyrimidin-3-yl)-N-((tetrahydro-2H-pyran-4-yl)methyl)methanamine]
Human σ1 receptor
  pKi: 6.00 to 6.30
[1]
  pKi: 5.30 to 6.30

## Cc1nn2c(CC3CCCN(Cc4ccc(Cl)cc4)C3)ccnc2c1-c1ccncc1 (stereo not shown) [Example 249, 7-((1-(4-Chlorobenzyl)piperidin-3-yl)methyl)-2-methyl-3-(pyridin-4-yl)pyrazolo[1,5-a]pyrimidine]
Human σ1 receptor
  pKi: > 6.30
[1]
  pKi: < 5.30

## Cc1nn2c(CC3CCCN(Cc4cccc(Cl)c4)C3)ccnc2c1-c1ccncc1 (stereo not shown) [Example 250]
Human σ1 receptor
  pKi: 6.00 to 6.30
[1]
  pKi: < 5.30

## Cc1nn2c(CC3CCCN(Cc4ccc(Cl)cc4)C3)ccnc2c1CN(C)C (stereo not shown) [Example 251, 1-(7-((1-(4-Chlorobenzyl)piperidin-3-yl)methyl)-2-methylpyrazolo[1,5-a]pyrimidin-3-yl)-N,N-dimethylmethanamine]
Human σ1 receptor
  pKi: > 6.30
[1]
  pKi: < 5.30

## Cc1nn2c(CC3CCCN(Cc4cccc(Cl)c4)C3)ccnc2c1CN(C)C (stereo not shown) [Example 252, 1-(7-((1-(3-Chlorobenzyl)piperidin-3-yl)methyl)-2-methylpyrazolo[1,5-a]pyrimidin-3-yl)-N,N-dimethylmethanamine]
Human σ1 receptor
  pKi: > 6.30
[1]
  pKi: < 5.30

## Cc1nn2c(C3CCCCN(Cc4ccc(Cl)cc4)C3)ccnc2c1CNCC1CCOCC1 (stereo not shown) [Example 253, 1-(7-(1-(4-Chlorobenzyl)azepan-3-yl)-2-methylpyrazolo[1,5-a]pyrimidin-3-yl)-N-((tetrahydro-2H-pyran-4-yl)methyl)methanamine]
Human σ1 receptor
  pKi: > 6.30
[1]
  pKi: < 5.30
